According to patent publication US12156871B2, “Substituted azacycles as muscarinic M1 receptor positive allosteric modulators” (SUVEN LIFE SCIENCES LIMITED, priority 2017, dated 2024):
Values belong to the compound of their own block, whether it stands above or below them.

How the values were obtained:
[1] = target: T1, human Muscarinic M1 receptor (Homo sapiens, UniProt P11229); assay: Allosteric potency EC50 for muscarinic M1 receptor, CHO pCRE-Luc reporter cell assay; type: cell-based; conditions: in presence of EC20 of acetylcholine; CHO cells, luciferase reporter, 4 h
T1 sequence (P11229 1-460): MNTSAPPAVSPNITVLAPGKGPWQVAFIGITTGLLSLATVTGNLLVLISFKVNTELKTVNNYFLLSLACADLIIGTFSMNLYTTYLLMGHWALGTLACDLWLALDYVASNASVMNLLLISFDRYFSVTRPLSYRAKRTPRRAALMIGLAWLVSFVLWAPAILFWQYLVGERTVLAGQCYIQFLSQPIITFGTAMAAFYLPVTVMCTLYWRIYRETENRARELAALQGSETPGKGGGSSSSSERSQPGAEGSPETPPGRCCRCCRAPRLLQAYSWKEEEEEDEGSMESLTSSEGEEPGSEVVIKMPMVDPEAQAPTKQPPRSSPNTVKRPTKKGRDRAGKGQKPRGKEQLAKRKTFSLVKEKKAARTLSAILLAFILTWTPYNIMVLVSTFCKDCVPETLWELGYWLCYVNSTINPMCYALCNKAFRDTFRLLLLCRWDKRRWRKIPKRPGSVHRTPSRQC
Description: A stable CHO cell line expressing recombinant human Muscarinic M1 receptor and pCRE-Luc reporter system was used for cell-based assay. The assay offers a non-radioactive based approach to determine binding of a compound to GPCRs. In this specific assay, the level of intracellular cyclic AMP which is modulated by activation or inhibition of the receptor is measured. The recombinant cells harbor luciferase reporter gene under the control of cAMP response element.
The above cells were grown in 96 well clear bottom white plates in Hams F12 medium containing 10% fetal bovine serum (FBS). Prior to the addition of compounds or standard agonist, cells were serum starved overnight. Increasing concentrations of test compounds were added along with EC20 of acetylcholine in OptiMEM medium to the cells. The incubation was continued at 37° C. in CO2 incubator for 4 h. Medium was removed and cells were washed with phosphate buffered saline. The cells were lysed and luciferase activity was measured in a Luminometer. Luminescence units were plotted against the compound concentrations using Graphpad software. EC50 values of the compounds were defined as the concentration required in stimulating the luciferase activity by 50% in presence of EC20 of acetylcholine.

[2] = Protein binding assay (HT dialysis), rat liver microsomes; type: in vitro ADME; conditions: pH 7.4, Rat liver microsomes 0.5 mg/mL, Mean ± SEM, n = 3, read-out: Fu Microsomes
Description: (§1) Unbound fractions of test compounds in plasma, brain homogenate and liver microsomes were determined using high-throughput dialysis (HT dialysis). Briefly, dialysis membranes were soaked in deionized water for 20 minutes and then in deionized water with 30% ethanol for 15 minutes and finally in phosphate buffer until use. Membranes were rinsed in phosphate buffer before assembling. The membranes were layered between teflon bars of dialysis assembly. Stock solutions of test compound/comparative compound were prepared at 10 mM in DMSO, diluted to 1 mM in acetonitrile and further diluted to 100 μM in mixture of water and acetonitrile (1:1 v/v). Human plasma (pool of 3) was prepared from human blood (3 donors) by centrifuging at 4000 rpm for 10 min at 4° C. Rat and dog blood were obtained on the day of the study and centrifuged to obtain plasma. Rat brains were isolated, cleaned and homogenized with 2 volumes of buffer (3 fold dilution). Liver microsomes were prepared at 0.5 mg/mL in phosphate buffer (100 mM, pH 7.4). The dialysate chambers were loaded with 150 μL of 100 mM phosphate buffer (pH 7.4) in triplicates. The matrix chambers were loaded with 150 μL of the plasma or brain homogenate or microsomal suspension spiked with test compound/comparative compound at a final concentration of 1 μM. 50 μL of the sample was removed from both the chambers at 0 h. The plate was sealed and incubated at 37° C. for 6 h at 100 rpm. After 6 h, 50 μL of the sample was removed from both the chambers. Equal volumes of buffer or human plasma/microsomal suspension were added to the plasma/microsomal and buffer samples respectively to create identical sample matrices for analysis. The samples were precipitated with 150 μL of acetonitrile containing fluoxetine as an internal standard. All the samples were centrifuged at 10000 rpm for 10 minutes at 4° C.

[3] = Protein binding assay (HT dialysis), human liver microsomes; type: in vitro ADME; conditions: pH 7.4, Human liver microsomes 0.5 mg/mL, Mean ± SEM, n = 3, read-out: Fu Microsomes (converted)
Description: as §1

[4] = Protein binding assay (HT dialysis), rat brain homogenate; type: in vitro ADME; conditions: pH 7.4, Mean ± SEM, n = 3, read-out: Fu Brain
Description: as §1

[5] = Protein binding assay (HT dialysis), human plasma; type: in vitro ADME; conditions: pH 7.4, Mean ± SEM, n = 3, read-out: Fu Plasma (converted)
Description: as §1

[6] = Protein binding assay (HT dialysis), dog plasma; type: in vitro ADME; conditions: pH 7.4, Mean ± SEM, n = 3, read-out: Fu Plasma (converted)
Description: as §1

[7] = Protein binding assay (HT dialysis), rat plasma; type: in vitro ADME; conditions: pH 7.4, Mean ± SEM, n = 3, read-out: Fu Plasma
Description: as §1

[8] = Protein binding assay (HT dialysis), dog liver microsomes; type: in vitro ADME; conditions: pH 7.4, Dog liver microsomes 0.5 mg/mL, Mean ± SEM, n = 3, read-out: Fu Microsomes (converted)
Description: as §1

[9] = Rodent pharmacokinetic study; type: in vivo, Male Wistar rats; conditions: rat
Description: Male Wistar rats (260±50 grams) were used as experimental animals. Animals were housed individually in polypropylene cage. Two days prior to study, male Wistar rats were anesthetized with isoflurane for surgical placement of jugular vein catheter. Rats were randomly divided for oral (3 mg/kg) and intravenous (i.v) (1 mg/kg) dosing (n=3/group) and fasted overnight before oral dosing (p.o.). However, rats allocated to intravenous (i.v.) dosing food and water was provided ad libitum.
At pre-determined point, blood was collected through jugular vein and replenished with an equivalent volume of normal saline. Collected blood was transferred into a labeled eppendorf tube containing 10 μL of heparin as an anticoagulant. Typically blood samples were collected at following time points: 0.08, 0.25, 0.5, 1, 2, 4, 6, 8, and 24 h post dose. Blood was centrifuged at 4000 rpm for 10 minutes. Plasma was separated and stored frozen at −80° C. until analysis. The concentrations of the test compounds were quantified in plasma by qualified LC-MS/MS method using suitable extraction technique. The test compounds were quantified in the calibration range around 1-1000 ng/mL in plasma. Study samples were analyzed using calibration samples in the batch and quality control samples spread across the batch.
Pharmacokinetic parameters Cmax, AUCt, T1/2, clearance and bioavailability (F) were calculated by non-compartmental model using standard non-compartmental model by using Phoenix WinNonlin 6.0.2 or 6.0.3 version Software package and the results are tabulated below.

[10] = Rodent brain penetration study; type: in vivo, Male Wistar rats; conditions: male, Wistar, brain/plasma, po; rat, 3 mg/kg, p.o. @ 1.0 hr; read-out: Single dose Rat Brain Penetration (Cb/Cp)
Description: Male Wistar rats (260±40 grams) were used as experimental animals. Three animals were housed in each cage. Animals were given water and food ad libitum throughout the experiment and maintained on a 12 h light/dark cycle.
Brain penetration was determined in discrete manner in rats. One day prior to dosing day, male Wistar rats were acclimatized and randomly grouped according to their weight. At each time point (0.5, 1 and 2 h) n=3 animals were used.
The test compounds were suitably preformulated and administered orally at (free base equivalent) 3 mg/kg. Blood samples were removed via cardiac puncture by using isoflurane anesthesia. The animals were sacrificed to collect brain tissue. Plasma was separated and brain samples were homogenized and stored frozen at −20° C. until analysis. The concentrations of the test compounds in plasma and brain were determined using LC-MS/MS method.
The test compounds were quantified in plasma and brain homogenate by qualified LC-MS/MS method using suitable extraction technique. The test compounds were quantified in the calibration range of 1-500 ng/mL in plasma and brain homogenate. Study samples were analyzed using calibration samples in the batch and quality control samples spread across the batch.

[11] = male, Wistar, plasma, iv, i.v. 1 mg/kg
[12] = male, Wistar, plasma, oral 3 mg/kg

- EC50 [1]: 929 nM
SMILES: Cc1nc2c(cc1Cc1ccnc(F)c1)C(=O)N([C@H]1CCCC[C@@H]1O)C2 [Example 28, 6-(1S,2S-2-Hydroxycyclohexyl)-2-methyl-3-(2-fluoropyridin-4-ylmethyl)-6,7-dihydropyrrolo[3,4-b]pyridin-5-one]

- EC50 [1]: 972 nM
SMILES: Cc1nc2c(cc1Cc1ccc(F)c(F)c1)C(=O)N([C@H]1CCCC[C@@H]1O)CC2 [Example 19, 6-(1S,2S-2-Hydroxycyclohexyl)-2-methyl-3-(3,4-difluorobenzyl)-7,8-dihydro-6H-[1,6]naphthyridin-5-one]

- EC50 [1]: 669 nM
SMILES: COc1ccc(Cc2cc3c(nc2C)CN(C2COCCC2O)C3=O)cc1 (centres unmarked) [Example 13, 6-(4-Hydroxytetrahydropyran-3-yl)-3-(4-methoxybenzyl)-2-methyl-6,7-dihydropyrrolo[3,4-b]pyridin-5-one]

- EC50 [1]: 1320 nM
SMILES: Cc1nc(-c2ccc(Cc3cc4c(nc3C)CN(C3CCOCC3)C4=O)cc2)co1 [Example 16, 6-(Tetrahydropyran-4-yl)-2-methyl-3-[4-(2-methyl-oxazol-4-yl)-benzyl]-6,7-dihydropyrrolo[3,4-b]pyridin-5-one]

- fraction unbound at 6 h, 1 μM [2]: 0.551 ± 0.013
- fraction unbound at 6 h, 1 μM [3]: 0.48
- fraction unbound at 6 h, 1 μM [4]: 0.0022 ± 0.001
- fraction unbound at 6 h, 1 μM [5]: 0.0063
- fraction unbound at 6 h, 1 μM [6]: 0.0069
- fraction unbound at 6 h, 1 μM [7]: 0.0141 ± 0.003
- fraction unbound at 6 h, 1 μM [8]: 0.709
SMILES: COc1ccc(Cc2cc3c(cc2C)CN([C@H]2CCCC[C@@H]2O)C3=O)cc1 [Comparative compound, reference compound]

- AUC(0-t) [9, 11]: 1220 ± 25 ng·h/mL
- clearance [9, 11]: 13.5 ± 0.3 mL/min/kg
- half-life [9, 11]: 1.3 ± 0.3 h
- AUC(0-t) [9, 12]: 1290 ± 387 ng·h/mL
- Cmax [9, 12]: 592 ± 142 ng/mL
- half-life [9, 12]: 1.1 ± 0.4 h
- F ([9]; oral 3 mg/kg vs i.v. 1 mg/kg): 35 ± 11%
- EC50 [1]: 1500 nM
- Kp at 1 h [10]: 0.25 ± 0.04
SMILES: Cc1nc2c(cc1Cc1ccc(F)cc1)C(=O)N([C@H]1CCCC[C@@H]1O)C2 [Example 9, 6-(1S,2S-2-Hydroxycyclohexyl)-2-methyl-3-(4-fluorobenzyl)-6,7-dihydropyrrolo[3,4-b]pyridin-5-one]

- EC50 [1]: 107 nM
SMILES: Cc1nc2c(cc1Cc1ccc(-c3cscn3)cc1)C(=O)N([C@H]1CCCC[C@@H]1O)C2 [Example 4, 6-(1S,2S-2-Hydroxycyclohexyl)-2-methyl-3-(4-thiazol-4-ylbenzyl)-6,7-dihydropyrrolo[3,4-b]pyridin-5-one]

- EC50 [1]: 288 nM
SMILES: Cc1nc2c(cc1Cc1ccc(-c3cnn(C)c3)nc1)C(=O)N([C@H]1CCCC[C@@H]1O)C2 [Example 2, 6-(1S,2S-2-Hydroxycyclohexyl)-2-methyl-3-[2-(1-methyl-1H-pyrazol-4-yl)pyridin-5-ylmethyl]-6,7-dihydropyrrolo[3,4-b]pyridin-5-one]

- EC50 [1]: 774 nM
SMILES: Cc1nc2c(cc1Cc1cccc(Cl)c1)C(=O)N([C@H]1CCCC[C@@H]1O)CC2 [Example 18, 6-(1S,2S-2-Hydroxycyclohexyl)-2-methyl-3-(3-chlorobenzyl)-7,8-dihydro-6H-[1,6]naphthyridin-5-one]

- EC50 [1]: 1210 nM
SMILES: COc1cccc(Cc2cc3c(nc2C)CCN([C@H]2CCCC[C@@H]2O)C3=O)c1 [Example 24, 6-(1S,2S-2-Hydroxycyclohexyl)-2-methyl-3-(3-methoxybenzyl)-7,8-dihydro-6H-[1,6]naphthyridin-5-one]

- EC50 [1]: 2780 nM
SMILES: Cc1nc2c(cc1Cc1cccc(F)c1)C(=O)N([C@H]1CCCC[C@@H]1O)C2 [Example 10, 6-(1S,2S-2-Hydroxycyclohexyl)-2-methyl-3-(3-fluorobenzyl)-6,7-dihydropyrrolo[3,4-b]pyridin-5-one]

- EC50 [1]: 643 nM
SMILES: COc1ccc(Cc2cc3c(nc2C)CCN([C@H]2CCCC[C@@H]2O)C3=O)cc1 [Example 14, 6-(1S,2S-2-Hydroxycyclohexyl)-2-methyl-3-(4-methoxybenzyl)-7,8-dihydro-6H-[1,6]naphthyridin-5-one]
